In patent US12264170B2, “Antimicrobial organosilanes” (TOPIKOS SCIENTIFIC, INC., priority 2019, dated 2025):
Converted amounts (≈) assume the structure as drawn. “And” between values parts separate entries of the source, which are not always exact repeats. Equal entries are not always repeated. Values belong to the compound of their own block, whether it stands above or below them.

What was measured:
[1] = system: Pseudomonas aeruginosa CDC 0248; test: MIC microdilution assay (Example 32); type: cell-based; settings: P. aeruginosa CDC 0248; CAMHB; 35±2° C. 18 to 20 hours; two values given
Method: (§1) Strain IDs starting with “ATCC” were acquired from the American Type Culture Collection (Manassas, VA), strain IDs starting with “Eurofins” were acquired from Eurofins (Herndon, VA), while strain IDs starting with “CDC” were acquired from the Centers for Disease Control and Prevention (Atlanta, GA). All strains were maintained as −80° C. frozen glycerol stocks. S. aureus and P. aeruginosa were grown overnight on Tryptic Soy Agar (TSA) plates at 35±2° C., ambient atmosphere, while S. pyogenes was grown overnight on TSA+5% defibrinated sheep blood at 35±2° C., 5% CO2. C. jejuni was grown for 48 hours on TSA+5% defibrinated sheep blood at 35±2° C., in a microaerophilic environment generated by CampyGen sachet. All fungal species (i.e. C. albicans and C. auris) were grown overnight on Sabouraud Dextrose Agar (SDA) plates at 35±2° C., ambient atmosphere.
(§2) Test article Compound 1 (batch #7G30A9.203) was stored at 4° C. The antibiotic Tobramycin and antifungal Amphotericin B were used as quality control (QC) compounds for the MIC assay. Stock solutions of 3.2 mg/mL Tobramycin (Sigma-Aldrich, cat #T1783-500MG) and 3.2 mg/mL Amphotericin B (CP Lab Chemicals, cat #TOK-A007-1G) were prepared in sterile ultrapure water.
(§3) For bacteria strains, a few colonies of each strain were collected with a sterile swab and used to make a McFarland 0.5 standard solution (approximately 1×10^8 CFU/mL) in sterile PBS. The McFarland was then diluted 1:180 in Cation Adjusted Muller-Hinton Broth (CAMHB) for S. aureus and P. aeruginosa. S. pyogenes McFarland was diluted 1:180 in CAMHB+5% defibrinated sheep blood, while C. jejuni McFarland was diluted 1:180 in CAMHB+5% laked horse blood. 90 μL of this inoculum was combined with 10 μL of the 10× test article in a 96-well plate for a final concentration of 1×.
(§4) Except for C. jejuni, all bacterial-strain MIC 96-well plates were incubated at 35±2° C. for 18 to 20 hours, ambient atmosphere. C. jejuni was incubated at 35±2° C. for 48 hours, under microaerophilic condition. All Candida MIC 96-well plates were incubated at 35±2° C. for 24 to 48 hours, ambient atmosphere, until growth in control wells were observed. After incubation, the 96-well plates were examined visually and on a spectrophotometer at absorbance OD650. MIC is defined as the lowest concentration of a compound in which no visible growth is observed.

[2] = system: Pseudomonas aeruginosa Eurofins 1674623; test: MIC microdilution assay (Example 32); type: cell-based; settings: P. aeruginosa Eurofins 1674623; CAMHB; 35±2° C. 18 to 20 hours; two values given
Method: as §1, §2, §3, §4

[3] = system: Acinetobacter baumannii Eurofins 1674627; test: MIC microdilution assay (Example 32); type: cell-based; settings: A. baumannii Eurofins 1674627; 35±2° C. 18 to 20 hours; two values given
Method: as §1, §2, §3, §4

[4] = system: Pseudomonas aeruginosa ATCC 27853; test: MIC microdilution assay (Example 32); type: cell-based; settings: P. aeruginosa ATCC 27853 (quality control); CAMHB; 35±2° C. 18 to 20 hours; two values given
Method: as §1, §2, §3, §4

[5] = system: Streptococcus pyogenes Eurofins 2065755; test: MIC microdilution assay (Example 32); type: cell-based; settings: S. pyogenes Eurofins 2065755; CAMHB+5% defibrinated sheep blood; 35±2° C. 18 to 20 hours; two values given
Method: as §1, §2, §3, §4

[6] = system: Campylobacter jejuni CDC 0413; test: MIC microdilution assay (Example 32); type: cell-based; settings: C. jejuni CDC 0413; CAMHB+5% laked horse blood; 35±2° C. 48 hours, microaerophilic; two values given
Method: as §1, §2, §3, §4

Candida auris CDC 0381 [7] = test: MIC microdilution assay; type: cell-based; settings: C. auris CDC 0381; RPMI media; 35±2° C. 24 to 48 hours; two values given
Method: (§5) Strain numbers starting with “ATCC” were acquired from the American Type Culture Collection (Manassas, VA), while strain numbers starting with “CDC” were acquired from the Centers for Disease Control and Prevention (Atlanta, GA). All strains were maintained as −80° C. frozen glycerol stocks. S. aureus and P. aeruginosa were grown overnight on Tryptic Soy Agar (TSA) plates at 35±2° C., ambient atmosphere, while S. pyogenes was grown overnight on TSA+5% defibrinated sheep blood at 35±2° C., 5% CO2. All fungal species (i.e. C. albicans, C. auris and C. herbarum) were grown on Sabouraud Dextrose Agar (SDA) plates. C. herbarum was grown at 25±2° C. for 5 to 7 days, while all other fungal strains were grown at 35±2° C. overnight.
as §2, with “Test articles” for “Test article”, “Compound 2” for “Compound 1”, “(batch #2G13A0.368) and Compound 23 (batch #2G17A0.372) were received and” for “(batch #7G30A9.203) was”
as §3, with “aeruginosa, and” for “aeruginosa. S. pyogenes McFarland was diluted 1:180”, “[…]+5%” for “CAMHB+5%”, “blood for S. pyogenes.” for “blood, while C. jejuni McFarland was diluted 1:180 in CAMHB+5% laked horse blood.”
(§6) For the yeasts C. albicans and C. auris, a McFarland 0.5 standard solution in sterile PBS was similarly prepared (approximately 1×10^6 CFU/mL) and was subsequently diluted 1:180 in RPMI 1640 media buffered with 0.165 M MOPS at pH 7.0 (herein referred to as “RPMI media”). 90 μL of the Candida inoculum was combined with 10 μL of the 10× test article in a 96-well plate for a final concentration of 1×.
(§7) All bacterial-strain MIC 96-well plates were incubated at 35±2° C. for 18 to 20 hours, while all Candida MIC 96-well plates were incubated at 35±2° C. for 24 to 48 hours. C. herbarum MIC 96-well plates were incubated at 25±2° C. for 3 to 5 days, until growth was visible in the growth control wells. After incubation, the 96-well plates were examined visually and on a spectrophotometer at absorbance OD650. MIC is defined as the lowest concentration of a compound in which no visible growth is observed.

[8] = system: Candida albicans ATCC 90028; test: MIC microdilution assay; type: cell-based; settings: C. albicans ATCC 90028; RPMI media; 35±2° C. 24 to 48 hours; two values given
Method: as §5
as §2, with “Test articles” for “Test article”, “Compound 2” for “Compound 1”, “(batch #2G13A0.368) and Compound 23 (batch #2G17A0.372) were received and” for “(batch #7G30A9.203) was”
as §3, with “aeruginosa, and” for “aeruginosa. S. pyogenes McFarland was diluted 1:180”, “[…]+5%” for “CAMHB+5%”, “blood for S. pyogenes.” for “blood, while C. jejuni McFarland was diluted 1:180 in CAMHB+5% laked horse blood.”
as §6, §7

[9] = system: Cladosporium herbarum ATCC MYA-4682; test: MIC microdilution assay; type: cell-based; settings: C. herbarum ATCC MYA-4682; RPMI media; 25±2° C. 3 to 5 days; two values given
Method: as §5
Test articles Compound 2 (batch #2G13A0.368) and Compound 23 (batch #2G17A0.372) were received and stored at 4° C. The antibiotic Tobramycin and antifungal Amphotericin B were used as quality control (QC) compounds for the MIC assay. […]
All bacterial-strain MIC 96-well plates were incubated at 35±2° C. for 18 to 20 hours, while all Candida MIC 96-well plates were incubated at 35±2° C. for 24 to 48 hours. […] After incubation, the 96-well plates were examined visually and on a spectrophotometer at absorbance OD650. […]

P. aeruginosa ATCC 27853 [10] = test: MIC microdilution assay; type: cell-based, Pseudomonas aeruginosa; settings: CAMHB, 35±2° C. 18 to 20 hours, two values given
Method: as §5
as §2, with “Test articles” for “Test article”, “Compound 2” for “Compound 1”, “(batch #2G13A0.368) and Compound 23 (batch #2G17A0.372) were received and” for “(batch #7G30A9.203) was”
as §3, with “aeruginosa, and” for “aeruginosa. S. pyogenes McFarland was diluted 1:180”, “[…]+5%” for “CAMHB+5%”, “blood for S. pyogenes.” for “blood, while C. jejuni McFarland was diluted 1:180 in CAMHB+5% laked horse blood.”
as §7, with “MIC is defined as the lowest concentration of a compound in which no visible growth is observed.” left out

[11] = system: Staphylococcus aureus ATCC 33591; test: MIC microdilution assay; type: cell-based; settings: S. aureus ATCC 33591; CAMHB; 35±2° C. 18 to 20 hours; two values given
Method: as §5
as §2, with “Test articles” for “Test article”, “Compound 2” for “Compound 1”, “(batch #2G13A0.368) and Compound 23 (batch #2G17A0.372) were received and” for “(batch #7G30A9.203) was”
as §3, with “aeruginosa, and” for “aeruginosa. S. pyogenes McFarland was diluted 1:180”, “[…]+5%” for “CAMHB+5%”, “blood for S. pyogenes.” for “blood, while C. jejuni McFarland was diluted 1:180 in CAMHB+5% laked horse blood.”
as §7, with “MIC is defined as the lowest concentration of a compound in which no visible growth is observed.” left out

S. pyogenes ATCC 51339 [12] = test: MIC microdilution assay; type: cell-based, Steptococcus pyogenes; settings: S. pyogenes ATCC 51339; broth +5% defibrinated sheep blood; 35±2° C. 18 to 20 hours; two values given
Method: as §5
as §2, with “Test articles” for “Test article”, “Compound 2” for “Compound 1”, “(batch #2G13A0.368) and Compound 23 (batch #2G17A0.372) were received and” for “(batch #7G30A9.203) was”
as §3, with “aeruginosa, and” for “aeruginosa. S. pyogenes McFarland was diluted 1:180”, “[…]+5%” for “CAMHB+5%”, “blood for S. pyogenes.” for “blood, while C. jejuni McFarland was diluted 1:180 in CAMHB+5% laked horse blood.”
as §7, with “MIC is defined as the lowest concentration of a compound in which no visible growth is observed.” left out

Candida auris CDC 0385 = test: MIC microdilution assay (Example 32); type: cell-based; settings: C. auris CDC 0385; RPMI media; 35±2° C. 24 to 48 hours; two values given
Method: as §1, §2, §3, §6, §4

[13] = system: Candida albicans ATCC 90028; test: MIC microdilution assay (Example 32); type: cell-based; settings: C. albicans ATCC 90028 (quality control); RPMI media; 35±2° C. 24 to 48 hours; two values given
Method: as §1, §2, §3, §6, §4

pH of aqueous solution = type: physicochemical; settings: 2% solution in water
[14] = Dissolution of isolated product in water; type: physicochemical; settings: observation
S. pyogenes ATCC 51339 [15] = test: MBC/MFC determination; type: cell-based, Steptococcus pyogenes; settings: plated after 18 to 20 hours incubation, two values given
Method: (§8) 10 μL of liquid from each test condition was plated on the appropriate agar media for each test strain. For bacteria strains, plating for MBC occurred after 18 to 20 hours incubation. For the Candida species, plating for MFC occurred after 48 hours incubation, while C. herbarum plating for MFC occurred 3 days after incubation when growth in growth control wells was visually observed. Once the liquid from the 96-well plate has been allowed to air dry in a biosafety cabinet, the agar plates were incubated under the appropriate conditions and colony formation was assessed. MBC/MFC is defined as the lowest concentration of a compound in which no colonies were recovered.

Candida auris CDC 0381 [16] = test: MBC/MFC determination; type: cell-based; settings: C. auris CDC 0381; plated after 48 hours incubation; two values given
Method: as §8

[17] = system: Candida albicans ATCC 90028; test: MBC/MFC determination; type: cell-based; settings: C. albicans ATCC 90028; plated after 48 hours incubation; two values given
Method: as §8

[18] = system: Cladosporium herbarum ATCC MYA-4682; test: MBC/MFC determination; type: cell-based; settings: C. herbarum ATCC MYA-4682; plated 3 days after incubation; two values given
Method: as §8

P. aeruginosa ATCC 27853 [19] = test: MBC/MFC determination; type: cell-based, Pseudomonas aeruginosa; settings: plated after 18 to 20 hours incubation, two values given
Method: as §8

MIC [1]: >32 mg/L
MIC [2]: >32 mg/L
MIC [3]: >32 mg/L
MIC [4]: >32 mg/L
MIC [5]: >32 mg/L
MIC [6]: >32 mg/L
MIC (Candida auris CDC 0381 [7]): 1 mg/L (≈ 1.08 µM)
MIC [8]: 2 mg/L (≈ 2.16 µM)
MIC [9]: ≤0.03 mg/L
MIC (P. aeruginosa ATCC 27853 [10]): >32 mg/L
MIC [11]: >32 mg/L
MIC (S. pyogenes ATCC 51339 [12]): >32 mg/L
MIC (Candida auris CDC 0385): 4 mg/L (≈ 4.33 µM)
MIC [13]: 1 mg/L (≈ 1.08 µM)
SMILES: C[C@@H]1[C@H](O)[C@@H](C)/C=C/C=C/C=C/C=C/C=C/C=C/C=C/[C@H](O[C@@H]2O[C@H](C)[C@@H](O)[C@H](N)[C@@H]2O)C[C@@H]2O[C@](O)(C[C@@H](O)C[C@@H](O)[C@H](O)CC[C@@H](O)C[C@@H](O)CC(=O)O[C@H]1C)C[C@H](O)[C@H]2C(=O)O [Amphotericin B]

SMILES: CCCCCCCCCCCCCCCCCC[N+](C)(C)CCC[Si](OCC(CO)(CO)NCC(O)CS(=O)(=O)[O-])(OCC(CO)(CO)NCC(O)CS(=O)(=O)O)OCC(CO)(CO)NCC(O)CS(=O)(=O)O (stereo not drawn) [Example 24, monosodium mono(8-(3-(dimethyl(octadecyl)ammonio)propyl)-2,14-dihydroxy-8-(3-hydroxy-2-((2-hydroxy-3-sulfopropyl)amino)-2-(hydroxymethyl)propoxy)-5,5,11,11-tetrakis(hydroxymethyl)-7,9-dioxa-4,12-diaza-8-silapentadecane-1,15-disulfonate); chloride]
pH of solution (pH of aqueous solution): 7.65
dissolution in water [14]: readily dissolved in water

SMILES: CCCCCCCCCCCCCCCCCC[N+](C)(C)CCC[Si](OCC(CO)(CO)NCC(O)CS(=O)(=O)[O-])(OCC(CO)(CO)NCC(O)CS(=O)(=O)[O-])OCC(CO)(CO)NCC(O)CS(=O)(=O)O.[Cl-].[Na+].[Na+] (stereo not drawn) [Compound 2]
MIC (Candida auris CDC 0381 [7]): 1 mg/L
MBC/MFC (S. pyogenes ATCC 51339 [15]): >64 mg/L and 64 mg/L
MBC/MFC (Candida auris CDC 0381 [16]): 1 mg/L
MBC/MFC [17]: 2 mg/L and 1 mg/L
MBC/MFC [18]: 2 mg/L
MIC (P. aeruginosa ATCC 27853 [10]): >64 mg/L
MIC [11]: 1 mg/L
MBC/MFC (P. aeruginosa ATCC 27853 [19]): >64 mg/L
